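Five concentrations, 48 hours, 96-well plates. Definition used: TGI = concentration required for complete inhibition of growth.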
Key:
Assay in all cases: NCI-60 cell line screen, 48 h
[1] = tested on: SN12C renal
[2] = tested on: SK-OV-3 ovarian
[3] = tested on: 786-0 renal
[4] = tested on: MDA-MB-435
[5] = tested on: OVCAR-3 ovarian
[6] = tested on: SK-MEL-28 melanoma
[7] = tested on: NCI-H522 lung
[8] = tested on: DLD-1 colon
[9] = tested on: UO-31 renal
[10] = tested on: CCRF-CEM leukemia
[11] = tested on: DMS 114 small cell lung
[12] = tested on: HOP-62 NSCLC
[13] = tested on: TK-10 renal
[14] = tested on: M14 melanoma
[15] = tested on: RPMI-8226 leukemia
[16] = tested on: BT-549 breast
[17] = tested on: MDA-N
[18] = tested on: MDA-MB-231 breast
[19] = tested on: RXF 393 renal
[20] = tested on: HL-60(TB) leukemia
[21] = tested on: DU-145 prostate
[22] = tested on: A549 NSCLC
[23] = tested on: OVCAR-5 ovarian
[24] = tested on: U251 CNS
[25] = tested on: SK-MEL-2 melanoma
[26] = tested on: SNB-75 CNS
[27] = tested on: SNB-19 CNS
[28] = tested on: NCI/ADR-RES ovarian
[29] = tested on: LOX IMVI melanoma
[30] = tested on: OVCAR-8 ovarian
[31] = tested on: XF 498 CNS
[32] = tested on: M19-MEL melanoma
[33] = tested on: HCT-116 colon
[34] = tested on: K-562 leukemia
[35] = tested on: SR leukemia
[36] = tested on: PC-3 prostate
[37] = tested on: SNB-78 CNS
[38] = tested on: HT29 colon
[39] = tested on: KM20L2 colon
[40] = tested on: HOP-92 NSCLC
[41] = tested on: SW-620 colon
[42] = tested on: UACC-62 melanoma
[43] = tested on: T-47D breast
[44] = tested on: HS 578T breast
[45] = tested on: IGROV1 ovarian
[46] = tested on: COLO 205 colon
[47] = tested on: OVCAR-4 ovarian
[48] = tested on: SF-268 CNS
[49] = tested on: A498 renal
[50] = tested on: CAKI-1 renal
[51] = tested on: UACC-257 melanoma
[52] = tested on: NCI-H23 lung
[53] = tested on: ACHN renal
[54] = tested on: LXFL 529 NSCLC
[55] = tested on: DMS 273 small cell lung
[56] = tested on: HCC-2998 colon
[57] = tested on: SK-MEL-5 melanoma
[58] = tested on: MALME-3M melanoma
[59] = tested on: SF-539 CNS
[60] = tested on: SF-295 CNS
[61] = tested on: KM12 colon
[62] = tested on: NCI-H226 lung
[63] = tested on: EKVX NSCLC
[64] = tested on: HOP-18 NSCLC
[65] = tested on: MCF7 breast
[66] = tested on: HCT-15 colon
[67] = tested on: NCI-H460 lung
[68] = tested on: MOLT-4 leukemia
[69] = tested on: RXF-631 renal

## C1CN(c2nnc(N3CCC3)nn2)C1
[1]
  TGI: 65.8 µM
[2]
  TGI: > 100 µM
[3]
  TGI: 49.5 µM
[4]
  TGI: 32.4 µM
[5]
  TGI: > 100 µM
[6]
  TGI: > 68.3 µM
[7]
  TGI: 85.2 µM
[8]
  TGI: > 100 µM
[9]
  TGI: > 100 µM
[10]
  TGI: > 100 µM
[11]
  TGI: 43.6 µM
[12]
  TGI: > 100 µM
[13]
  TGI: > 100 µM
[14]
  TGI: 62.1 µM
[15]
  TGI: > 100 µM
[16]
  TGI: > 100 µM
[17]
  TGI: 31 µM
[18]
  TGI: > 60.2 µM
[19]
  TGI: > 74.5 µM
[20]
  TGI: > 100 µM
[21]
  TGI: > 100 µM
[22]
  TGI: > 100 µM
[23]
  TGI: > 46.4 µM
[24]
  TGI: > 92.6 µM
[25]
  TGI: > 89.5 µM
[26]
  TGI: > 46.4 µM
[27]
  TGI: > 79.5 µM
[28]
  TGI: > 100 µM
[29]
  TGI: 36.1 µM
[30]
  TGI: > 100 µM
[31]
  TGI: 46.1 µM
[32]
  TGI: 29.4 µM
[33]
  TGI: > 100 µM
[34]
  TGI: > 31.6 µM
[35]
  TGI: > 100 µM
[36]
  TGI: > 60 µM
[37]
  TGI: > 100 µM
[38]
  TGI: > 56.2 µM
[39]
  TGI: > 63.7 µM
[40]
  TGI: > 100 µM
[41]
  TGI: 59 µM
[42]
  TGI: 38.5 µM
[43]
  TGI: > 100 µM
[44]
  TGI: > 92.9 µM
[45]
  TGI: > 100 µM
[46]
  TGI: > 92.4 µM
[47]
  TGI: > 64.6 µM
[48]
  TGI: > 100 µM
[49]
  TGI: > 100 µM
[50]
  TGI: > 100 µM
[51]
  TGI: 49.4 µM
[52]
  TGI: 79.7 µM
[53]
  TGI: > 92.1 µM
[54]
  TGI: 44 µM
[55]
  TGI: > 60.2 µM
[56]
  TGI: > 100 µM
[57]
  TGI: 73.3 µM
[58]
  TGI: > 79.3 µM
[59]
  TGI: 77.6 µM
[60]
  TGI: 69.6 µM
[61]
  TGI: > 100 µM
[62]
  TGI: > 100 µM
[63]
  TGI: > 100 µM
[64]
  TGI: > 100 µM
[65]
  TGI: > 72.2 µM
[66]
  TGI: > 100 µM
[67]
  TGI: > 100 µM
[68]
  TGI: > 100 µM

## CC(C)c1cc(C(C)C)c(S(=O)(=O)N=[N+]=[N-])c(C(C)C)c1
[1]
  TGI: > 100 µM
[2]
  TGI: > 100 µM
[3]
  TGI: > 100 µM
[5]
  TGI: > 100 µM
[6]
  TGI: > 100 µM
[7]
  TGI: > 100 µM
[8]
  TGI: > 100 µM
[9]
  TGI: > 100 µM
[10]
  TGI: > 100 µM
[12]
  TGI: > 100 µM
[13]
  TGI: > 100 µM
[14]
  TGI: > 100 µM
[15]
  TGI: 97.6 µM
[19]
  TGI: > 100 µM
[20]
  TGI: > 100 µM
[22]
  TGI: > 100 µM
[23]
  TGI: > 100 µM
[24]
  TGI: > 100 µM
[26]
  TGI: > 100 µM
[27]
  TGI: > 100 µM
[29]
  TGI: > 100 µM
[30]
  TGI: > 100 µM
[31]
  TGI: > 100 µM
[32]
  TGI: > 100 µM
[33]
  TGI: > 100 µM
[34]
  TGI: > 100 µM
[35]
  TGI: > 100 µM
[38]
  TGI: > 100 µM
[39]
  TGI: > 100 µM
[40]
  TGI: > 100 µM
[41]
  TGI: > 100 µM
[42]
  TGI: > 100 µM
[45]
  TGI: > 100 µM
[46]
  TGI: > 100 µM
[69]
  TGI: > 100 µM
[47]
  TGI: > 100 µM
[48]
  TGI: > 100 µM
[50]
  TGI: > 100 µM
[51]
  TGI: > 100 µM
[52]
  TGI: > 100 µM
[53]
  TGI: > 100 µM
[54]
  TGI: > 100 µM
[55]
  TGI: > 100 µM
[56]
  TGI: > 100 µM
[57]
  TGI: > 100 µM
[58]
  TGI: > 100 µM
[59]
  TGI: > 100 µM
[61]
  TGI: > 100 µM
[62]
  TGI: > 100 µM
[66]
  TGI: > 100 µM
[67]
  TGI: > 100 µM
[68]
  TGI: > 100 µM

Reference: PubChem BioAssay (NCI)
